pIC50: −log10 of the molar value.
Legend:
ATR/ATRIP = biological target: T1, ATR/ATRIP (Homo sapiens, UniProt Q13535); assay: ATR/ATRIP kinase assay (TR-FRET, p53 phosphorylation); assay type: biochemical; details: Table 1, class symbols; read-out: ATR-ATRIP IC50
T1 construct: human ATR, full length, GenBank ID: NM_001184.3; p53: Sf21 insect cells

[1] = test system: phosphorylation of H2AX (gH2AX) in U2OS-TopBP1-ER cells; assay: gH2AX-TopBP1ER cellular assay; assay type: cell-based; details: Table 1, class symbols, 4-OHT
Text: gH2AX-TopBP1ER Cellular Assay
ATR activity is restricted to replicating cells and many of its targets can also be phosphorylated by other PIKKs. These restrictions have limited the development of selective cellular assays in the past. In order to overcome these limitations, a previously developed genetically engineered cellular system in which ATR, and only ATR, can be activated at will in every cell (Toledo et al Genes Dev. 22, 297-302 2008) was used. In this system, the addition of 4-hydroxytamoxifen (4-OHT), promotes the nuclear translocation of a fragment of TopBP1 which then activates ATR. The phosphorylation of H2AX that follows 4-OHT addition in these cells is a direct and selective readout of ATR activity, which is not influenced by the rest of PIKKs. This property has been used in a screen for compounds with ATR inhibitory capacity. U2OS-TopBP1-ER cells stably express the TopBP1 activation domain (aa 978-1286) fused to a mutated estrogen receptor ligand binding domain. Nuclear accumulation of the TopBP1-ER-LBD fusion protein is induced by the synthetic ER antagonist 4-hydroxytamoxifen (4-OHT) (and not by natural ER agonists) mediating specific ATR activation that is independent of DNA damage or cell cycle. In the assay phosphorylation of the ATR substrate H2AX (“gH2AX”) at Serin 139 is detected using an immune-cytochemical procedure and high content imaging. For the assay U2OS-TopBP1-ER cells are plated in culture medium (DMEM high Glucose (no phenol red), 2 mM Glutamax, 1 mM Pyruvate, 10% FCS into Greiner 384 well plates, black, μclear #781090 (4000 cells/well/30 μl) and incubated for at least 20 hours at 37° C., 10% CO2 and 90% rH. Diluted test compounds (1 nM-30 μM final) and 4-OHT (1 μM final) are added simultaneously and cells are incubated for 2 h at 37° C. After fixation with 4% formaldehyde and permeabilisation with 0.2% Triton X-100 a complete immunocytochemical procedure is performed using a specific anti-gH2AX-antibody (Millipore 05-636, clone JBW301) and fluorescently labelled secondary antibody (Alexa Fluor® 488 goat anti-mouse F(ab′)2 fragment, Invitrogen A11017) and parallel nuclear staining for cell counting. The nuclear localised gH2AX signal is detected on an ImageXpress Ultra confocal high content reader and reported as % positive cells (nuclei).

[2] = test system: phosphorylation of Chk1 (Ser 345) in HT29 colon adenocarcinoma cells; assay: pCHK1 cellular assay; assay type: cell-based; details: Homo sapiens, HT-29, Table 1, class symbols, hydroxyurea
Text: Chk1 kinase acts downstream of ATR and has a key role in DNA damage checkpoint control. Activation of Chk1 involves phosphorylation of Ser317 and Ser345 (regarded as the preferential target for phosphorylation/activation by ATR) and occurs in response to blocked DNA replication and certain forms of genotoxic stress. Phosphorylation at Ser 345 serves to localize Chk1 to the nucleus following checkpoint activation.
This assay measures a decrease in phosphorylation of Chk1 (Ser 345) in HT29 colon adenocarcinoma cells following treatment with compound and hydroxyurea (which promotes fork stalling because of dNTP depletion) and using an immunocytochemical procedure and high content imaging.
For the assay HT29 cells are plated in culture medium (DMEM high Glucose (no phenol red), 2 mM Glutamax, 1 mM Pyruvate, 10% FCS into Greiner 384 well plates, black, μclear #781090 (2500 cells/well/30 μl) and incubated for at least 20 hours at 37° C., 10% CO2 and 90% rH. Diluted test compounds (1 nM-30 μM final) and hydroxyurea (3 mM final) are added simultaneously and cells are incubated for 4 h at 37° C. After fixation/prmeabilisation with 100% MeOH (−20° C. cold) and permeabilisation with 0.2% Triton X-100 a complete immunocytochemical procedure is performed using a specific anti-pChk1 antibody (Cell Signaling, #2348BF) and fluorescently labelled secondary antibody (Alexa Fluor® 488 goat anti-rabbit F(ab′)2 fragment, Invitrogen A11070) and parallel nuclear staining for cell counting.
The nuclear localised pChk1 signal is detected on an ImageXpress Ultra confocal high content reader and reported as % positive cells (nuclei).

T1 sequence (Q13535 whole entry): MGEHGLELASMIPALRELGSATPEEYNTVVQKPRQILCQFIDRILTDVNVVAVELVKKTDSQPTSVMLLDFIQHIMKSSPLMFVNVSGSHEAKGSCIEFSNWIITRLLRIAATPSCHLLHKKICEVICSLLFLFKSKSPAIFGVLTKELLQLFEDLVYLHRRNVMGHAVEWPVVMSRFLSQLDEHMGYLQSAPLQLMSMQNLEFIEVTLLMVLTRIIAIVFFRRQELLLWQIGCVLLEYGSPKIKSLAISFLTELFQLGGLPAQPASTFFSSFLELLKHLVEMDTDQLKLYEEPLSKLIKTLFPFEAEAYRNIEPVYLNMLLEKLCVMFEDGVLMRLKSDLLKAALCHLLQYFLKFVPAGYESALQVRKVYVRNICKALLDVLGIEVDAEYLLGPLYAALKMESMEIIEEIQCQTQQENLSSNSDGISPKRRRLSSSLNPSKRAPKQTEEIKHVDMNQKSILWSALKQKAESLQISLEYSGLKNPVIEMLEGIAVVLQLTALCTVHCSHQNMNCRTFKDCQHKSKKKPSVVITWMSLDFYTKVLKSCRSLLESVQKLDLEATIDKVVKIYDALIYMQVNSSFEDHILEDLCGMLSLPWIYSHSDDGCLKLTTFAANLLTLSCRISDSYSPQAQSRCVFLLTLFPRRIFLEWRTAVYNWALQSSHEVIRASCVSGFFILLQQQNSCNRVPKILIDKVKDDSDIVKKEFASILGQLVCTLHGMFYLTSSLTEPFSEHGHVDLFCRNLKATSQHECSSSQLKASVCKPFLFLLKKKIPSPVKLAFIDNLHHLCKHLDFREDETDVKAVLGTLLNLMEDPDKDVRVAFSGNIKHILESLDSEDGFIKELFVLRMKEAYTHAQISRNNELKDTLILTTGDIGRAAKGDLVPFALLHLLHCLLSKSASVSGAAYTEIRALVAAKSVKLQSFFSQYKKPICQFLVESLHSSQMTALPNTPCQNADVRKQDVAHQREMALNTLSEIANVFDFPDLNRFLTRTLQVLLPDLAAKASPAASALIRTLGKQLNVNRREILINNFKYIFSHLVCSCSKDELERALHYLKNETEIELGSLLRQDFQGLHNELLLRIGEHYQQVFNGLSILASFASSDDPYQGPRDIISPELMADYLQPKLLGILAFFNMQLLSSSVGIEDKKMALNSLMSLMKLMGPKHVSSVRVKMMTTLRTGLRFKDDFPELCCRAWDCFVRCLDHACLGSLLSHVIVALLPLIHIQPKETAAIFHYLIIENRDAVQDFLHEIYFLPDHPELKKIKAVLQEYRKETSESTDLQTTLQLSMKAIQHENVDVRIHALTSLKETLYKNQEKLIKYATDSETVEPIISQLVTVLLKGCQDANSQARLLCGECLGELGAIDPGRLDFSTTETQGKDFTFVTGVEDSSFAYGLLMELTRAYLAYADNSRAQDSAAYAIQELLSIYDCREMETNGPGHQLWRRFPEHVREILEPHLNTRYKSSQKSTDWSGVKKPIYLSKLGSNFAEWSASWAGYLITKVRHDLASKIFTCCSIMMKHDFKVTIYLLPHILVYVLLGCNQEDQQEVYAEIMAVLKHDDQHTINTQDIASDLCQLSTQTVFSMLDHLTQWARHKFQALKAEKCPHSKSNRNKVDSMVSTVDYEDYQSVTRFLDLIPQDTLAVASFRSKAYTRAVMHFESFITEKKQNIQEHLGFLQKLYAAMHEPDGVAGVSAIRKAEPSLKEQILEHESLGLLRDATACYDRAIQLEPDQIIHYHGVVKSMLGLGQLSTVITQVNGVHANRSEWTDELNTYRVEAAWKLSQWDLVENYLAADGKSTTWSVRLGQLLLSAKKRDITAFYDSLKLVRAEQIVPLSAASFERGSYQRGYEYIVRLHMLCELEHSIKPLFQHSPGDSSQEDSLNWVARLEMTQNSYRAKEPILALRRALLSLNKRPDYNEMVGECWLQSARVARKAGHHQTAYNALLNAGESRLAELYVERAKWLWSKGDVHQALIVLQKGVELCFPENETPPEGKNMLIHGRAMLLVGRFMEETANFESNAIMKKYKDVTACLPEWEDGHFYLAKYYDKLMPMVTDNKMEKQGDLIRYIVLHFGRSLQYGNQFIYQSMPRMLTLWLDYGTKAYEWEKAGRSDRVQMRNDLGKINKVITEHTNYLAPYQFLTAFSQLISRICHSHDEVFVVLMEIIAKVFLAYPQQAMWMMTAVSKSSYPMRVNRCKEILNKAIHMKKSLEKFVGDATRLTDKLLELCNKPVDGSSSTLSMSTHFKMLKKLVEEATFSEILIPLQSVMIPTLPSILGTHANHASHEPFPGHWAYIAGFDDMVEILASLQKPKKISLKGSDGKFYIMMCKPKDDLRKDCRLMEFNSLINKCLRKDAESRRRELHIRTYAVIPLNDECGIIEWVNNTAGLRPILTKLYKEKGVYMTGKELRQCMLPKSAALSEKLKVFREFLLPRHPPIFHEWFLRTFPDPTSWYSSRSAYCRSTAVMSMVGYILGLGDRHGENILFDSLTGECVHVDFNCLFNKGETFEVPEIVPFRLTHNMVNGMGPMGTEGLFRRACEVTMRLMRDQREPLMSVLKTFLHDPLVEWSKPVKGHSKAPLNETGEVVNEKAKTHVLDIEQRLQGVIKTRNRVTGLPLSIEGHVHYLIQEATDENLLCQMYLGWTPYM
T1 sequence (Q8WXE1 whole entry partner): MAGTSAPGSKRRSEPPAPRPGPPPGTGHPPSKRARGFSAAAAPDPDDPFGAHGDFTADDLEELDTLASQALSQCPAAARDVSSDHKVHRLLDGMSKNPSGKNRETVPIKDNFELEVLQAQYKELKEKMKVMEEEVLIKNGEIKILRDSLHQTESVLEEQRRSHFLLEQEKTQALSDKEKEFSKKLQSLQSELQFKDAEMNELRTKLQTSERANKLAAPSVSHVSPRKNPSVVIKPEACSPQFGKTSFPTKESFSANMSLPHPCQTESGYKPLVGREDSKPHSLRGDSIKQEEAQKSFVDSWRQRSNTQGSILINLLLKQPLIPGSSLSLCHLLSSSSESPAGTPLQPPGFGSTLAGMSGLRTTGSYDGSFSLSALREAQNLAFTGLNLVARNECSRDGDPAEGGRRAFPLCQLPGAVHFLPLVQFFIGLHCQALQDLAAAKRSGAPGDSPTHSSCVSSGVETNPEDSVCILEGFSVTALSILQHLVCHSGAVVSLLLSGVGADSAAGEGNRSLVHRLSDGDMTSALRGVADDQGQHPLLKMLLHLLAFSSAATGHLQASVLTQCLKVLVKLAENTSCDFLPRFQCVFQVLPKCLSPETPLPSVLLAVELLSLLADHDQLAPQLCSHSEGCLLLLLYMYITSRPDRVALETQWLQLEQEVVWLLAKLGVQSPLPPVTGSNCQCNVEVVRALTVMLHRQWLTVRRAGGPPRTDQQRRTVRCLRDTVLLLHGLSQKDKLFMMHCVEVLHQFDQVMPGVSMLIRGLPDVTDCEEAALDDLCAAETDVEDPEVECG

| pIC50 (ATR/ATRIP) | pIC50 [1] | pIC50 [2] | Structure (SMILES) |
| --- | --- | --- | --- |
| 8.00 to 9.00 | 6.00 to 7.00 | 7.00 to 8.00 | CNc1cnc2[nH]ccc2c1-c1nc2c(c(C(C)(C)O)n1)OC[C@@H]1COC[C@@H](C)N21 [A23, 2-[(5R,8aS)-5-Methyl-3-(5-methylamino-1H-pyrrolo[2,3-b]pyridin-4-yl)-5,6,8a,9-tetrahydro-8H-7,10-dioxa-2,4,4b-triaza-phenanthren-1-yl]-propan-2-ol] |
| > 9.00 | 7.00 to 8.00 | 6.00 to 7.00 | C[C@@H]1COC[C@H]2COc3c(nc(-c4c(N)cnc5[nH]ccc45)nc3C(C)(C)O)N21 [A21, 2-[(5R,8aS)-3-(5-Amino-1H-pyrrolo[2,3-b]pyridin-4-yl)-5-methyl-5,6,8a,9-tetrahydro-8H-7,10-dioxa-2,4,4b-triaza-phenanthren-1-yl]-propan-2-ol] |
| > 9.00 | 7.00 to 8.00 | 7.00 to 8.00 | C[C@@H]1COC[C@H]2COc3c(nc(-c4ccnc5[nH]ccc45)nc3C(C)(C)O)N21 [A6, 2-[(5R,8aS)-5-Methyl-3-(1H-pyrrolo[2,3-b]pyridin-4-yl)-5,6,8a,9-tetrahydro-8H-7,10-dioxa-2,4,4b-triaza-phenanthren-1-yl]-propan-2-ol] |

Second part, the compound before the results:

| Structure (SMILES) | pIC50 (ATR/ATRIP) | pIC50 [1] | pIC50 [2] |
| --- | --- | --- | --- |
| CNc1nc2ccccc2n1-c1nc2c(c(C(C)(C)O)n1)OC[C@@H]1COC[C@@H](C)N21 [A9, 2-[(5R,8aS)-5-Methyl-3-(2-methylamino-benzimidazol-1-yl)-5,6,8a,9-tetrahydro-8H-7,10-dioxa-2,4,4b-triaza-phenanthren-1-yl]-propan-2-ol] | > 9.00 | 6.00 to 7.00 | 7.00 to 8.00 |
| CNc1nc2c(F)cccc2n1-c1nc2c(c(C(C)(C)S(C)(=O)=O)n1)OC[C@@H]1COC[C@@H](C)N21 [A25, {4-Fluoro-1-[(5R,8aS)-1-(1-methanesulfonyl-1-methyl-ethyl)-5-methyl-5,6,8a,9-tetrahydro-8H-7,10-dioxa-2,4,4b-triaza-phenanthren-3-yl]-1H-benzimidazol-2-yl}-methyl-amine] | > 9.00 | 6.00 to 7.00 | 7.00 to 8.00 |
| CNc1nccn1-c1nc2c(c(C(C)(C)S(C)(=O)=O)n1)OC[C@@H]1COC[C@@H](C)N21 [A10, {1-[(5R,8aS)-1-(1-Methanesulfonyl-1-methyl-ethyl)-5-methyl-5,6,8a,9-tetrahydro-8H-7,10-dioxa-2,4,4b-triaza-phenanthren-3-yl]-1H-imidazol-2-yl}-methyl-amine] | 7.00 to 8.00 | 6.00 to 7.00 | 7.00 to 8.00 |
